# Results reported in ChEMBL document CHEMBL1149151, “Macrocyclization in the design of non-phosphorus-containing Grb2 SH2 domain-binding ligands” (J Med Chem, 2004).
# Several values for one entry are separate records, joined by “and”; a condition that tells them apart may be missing. Equal values may be shown once.
# What was measured:
# [1] = koff value surface plasmon resonance (SPR) method; format: ADME
# [2] = kd value surface plasmon resonance (SPR) method; format: ADME
# [3] = molecular target: T1, Growth factor receptor-bound protein 2 (Homo sapiens, UniProt P62993); experiment: In vitro Growth factor receptor bound protein 2-binding affinity in surface plasmon resonance (SPR) method
# [4] = molecular target: T1, Growth factor receptor-bound protein 2; experiment: In vitro Growth factor receptor bound protein 2-binding affinity in ELISA method
Koff [1] [s⁻¹],Kd [2] [nM],IC50 [3],IC50 [4] [nM],SMILES
0.0056,0.9,1.4 nM and 12.1 nM,,NC(=O)C[C@@H]1NC(=O)C2(CCCCC2)NC(=O)[C@@H](CC(=O)O)[C@@H](c2ccc(CP(=O)(O)O)cc2)/C=C/C[C@@H](Cc2cccc3ccccc23)CNC1=O
0.11,128,~80 nM,10,NC(=O)C[C@H](NC(=O)C1(NC(=O)[C@H](Cc2ccc(CP(=O)(O)O)cc2)NC(=O)C(=O)O)CCCCC1)C(=O)NCCCc1cccc2ccccc12
,,,22.1,NC(=O)C[C@H](NC(=O)C1(NC(=O)[C@H](Cc2ccc(C(C(=O)O)C(=O)O)cc2)NC(=O)C(=O)O)CCCCC1)C(=O)NCCCc1cccc2ccccc12
0.044,12.1,12.1 nM,4.3,NC(=O)C[C@@H]1NC(=O)C2(CCCCC2)NC(=O)[C@@H](CC(=O)O)[C@@H](c2ccc(C(C(=O)[O-])C(=O)[O-])cc2)/C=C/C[C@@H](Cc2cccc3ccccc23)CNC1=O.[Na+].[Na+]
